For 1 compound, inhibition results are on record in ChEMBL document CHEMBL6153079, “Discovery of noncovalent diaminopyrimidine-based Inhibitors for glioblastoma via a dual FAK/DNA targeting strategy” (Eur J Med Chem, 2025).

Active and inactive are the calls of the source. The calls are words filed in the database; no cut-off is given here.

For the assay, the system named is U-87 MG. The assay is described as follows: Inhibition of colony formation in human U-87 MG cells at 0.005 uM incubated for 14 days and subsequent media replacement with compound for every 3 days by crystal violet staining based analysis. The format is functional, cell-based. The conditions noted are these: U-87MG ATCC, time 14.0 day.

For the compound `CNC(=O)c1ccccc1Nc1nc(Nc2ccc(N3CCN(CCOC(=O)CCCc4ccc(N(CCCl)CCCl)cc4)CC3)cc2)ncc1C(F)(F)F`, the inhibition result was “Active”.
